Where “and” joins values, the source holds several entries; their conditions need not be identical. Identical values can stand only once.
biological target: T1, factor D (Homo sapiens, UniProt P00746); assay: factor D inhibition assay of Biological Example 2; type: biochemical
T1 construct: made in house; host or cells: E. coli
T1 sequence (P00746 26-253): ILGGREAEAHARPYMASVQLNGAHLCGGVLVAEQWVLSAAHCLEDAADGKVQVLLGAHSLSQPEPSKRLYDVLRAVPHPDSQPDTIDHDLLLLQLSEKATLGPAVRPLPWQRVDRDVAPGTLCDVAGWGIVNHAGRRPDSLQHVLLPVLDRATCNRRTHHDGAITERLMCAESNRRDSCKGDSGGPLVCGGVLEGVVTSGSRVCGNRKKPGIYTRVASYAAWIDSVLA

Compound | IC50
C[C@@H](N)c1cccc(-c2cc(CCC3CCCN3)cc(COc3ccccc3CC(=O)O)c2)c1F (stereo partly drawn) [Example 238, 2-(2-((3′-((R)-1-aminoethyl)-2′-fluoro-5-(2-(pyrrolidin-2-yl)ethyl)-[1,1′-biphenyl]-3-yl)methoxy)phenyl)acetic acid] | 23 nM
NC(CF)c1cccc(-c2cccc(COc3ccccc3CC(=O)O)c2)c1 (single isomer, unassigned; (-)) [Example 190-B (−), (−)-2-(2-((3′-(1-amino-2-fluoroethyl)-[1, 1′-biphenyl]-3-yl)methoxy)phenyl)acetic acid] | 213 nM
C[C@@H](N)c1cccc(-c2cc(COc3ccccc3CC(=O)O)cc(N(C)CC3CCCO3)c2)c1F (stereo partly shown) [Example 216-G] | 7 nM
C[C@@H](N)c1cccc(-c2cc(NCC3CC3)cc(N(C)Cc3ccccc3CC(=O)O)c2)c1F [Example 216-AA] | 32 nM
C[C@@H](N)c1cccc(-c2cc(COc3ccccc3CC(=O)O)ccc2F)c1 [Example 124, (R)-2-(2-((3′-(1-Aminoethyl)-6-fluoro-[1,1′-biphenyl]-3-yl)methoxy)phenyl)acetic acid] | 99 nM
CCN(CC1CC1)c1cc(COc2ccccc2CC(=O)O)cc(-c2cccc([C@@H](C)N)c2F)c1 [Example 242-C, (R)-2-(2-((3′-(1-aminoethyl)-5-((cyclopropylmethyl)(ethyl)amino)-2′-fluoro-[1,1′-biphenyl]-3-yl)methoxy)phenyl)acetic acid] | 90 nM
C[C@@H](N)c1cccc(-c2cc(CNC3CCOC3)cc(COc3ccccc3CC(=O)O)c2)c1F (stereo partly shown) [Example 216-AG] | 24 nM
NC(CF)c1cccc(-c2cc(CCc3ccncc3)cc(COc3ccccc3CC(=O)O)c2)c1F (stereo not shown) [Example 216-Q] | 12 nM
C[C@@H](N)c1cccc(-c2cc(COc3ccccc3CC(=O)O)cc(-c3cnn(C)c3)c2)c1F [Example 230, (R)-2-(2-((3′-(1-aminoethyl)-2′-fluoro-5-(1-methyl-1H-pyrazol-4-yl)-[1,1′-biphenyl]-3-yl)methoxy)phenyl)acetic acid] | 3 nM
NC(c1ccccc1)c1cccc(-c2cccc(COc3ccccc3CC(=O)O)c2)c1 (stereo not shown) [Example 196-C] | 313 nM
C[C@@H](N)c1cccc(-c2cc(NC[C@@H]3CCCO3)cc(N(C)Cc3ccccc3CC(=O)O)c2)c1F [Example 216-AB] | 55 nM
C[C@@H](N)c1cccc(-c2cc(COc3ccccc3CC(=O)O)cc(NCC3CC3(F)F)c2)c1F (stereo partly drawn) [Example 281-E, 2-(2-((3′-((R)-1-Aminoethyl)-5-(((2,2-difluorocyclopropyl)methyl)amino)-2′-fluoro-[1,1′-biphenyl]-3-yl)methoxy)phenyl)acetic acid] | 14 nM
CCC[C@@H](N)c1cccc(-c2cc(COc3ccccc3CC(=O)O)cc(N3CCOCC3)c2)c1F [Example 198-C, (R)-2-(2-((3′-(1-Aminobutyl)-2′-fluoro-5-morpholino-[1,1′-biphenyl]-3-yl)methoxy)phenyl)acetic acid] | 199 nM
NCc1cccc(-c2cccc(COc3ccccc3CC(=O)O)c2)c1O [Example 144-C, 2-(2-((3′-(Aminomethyl)-2′-hydroxy-[1,1′-biphenyl]-3-yl)methoxy)phenyl)acetic acid] | 56 nM
C[C@@H](N)c1cccc(-c2cc(CCCF)cc(COc3ccccc3CC(=O)O)c2)c1F [Example 269-E, (R)-2-(2-((3′-(1-aminoethyl)-2′-fluoro-5-(3-fluoropropyl)-[1,1′-biphenyl]-3-yl)methoxy)phenyl)acetic acid] | 9 nM
Cc1ccc(COc2ccccc2CC(=O)O)cc1-c1cccc(CN)c1F [Example 149, 2-(2-((3′-(Aminomethyl)-2′-fluoro-6-methyl-[1,1′-biphenyl]-3-yl)methoxy)phenyl)acetic acid] | 44 nM
Cc1c(-c2cccc(COc3ccccc3CC(=O)O)c2)cccc1[C@H](N)CO [Example 142-C] | 49600 nM
COC(C)c1cc(COc2ccccc2CC(=O)O)cc(-c2cccc([C@@H](C)N)c2F)c1 (stereo partly shown) [Example 120-D] | 93 nM
NCc1cccc(-c2ccnc(COc3ccccc3CC(=O)O)c2)c1F [Example 182, 2-(2-((4-(3-(Aminomethyl)-2-fluorophenyl)pyridin-2-yl)methoxy)phenyl)acetic acid] | 8 nM
C[C@@H](N)c1cccc(-c2cccc(COc3ccccc3CC(=O)O)c2)n1 [Example 138-I] | 301 nM
C[C@@H](N)c1cccc(-c2cc(CCC3CCCO3)cc(COc3ccccc3CC(=O)O)c2)c1F (stereo partly drawn) [Example 236-C, 2-(2-((3′-((R)-1-aminoethyl)-2′-fluoro-5-(2-(tetrahydrofuran-2-yl)ethyl)-[1,1′-biphenyl]-3-yl)methoxy)phenyl)acetic acid] | 9 nM
CC(C)[C@@H](N)c1cccc(-c2cccc(COc3ccccc3CC(=O)O)c2)c1 [Example 190-F] | 3150 nM
O=C(O)Cc1ccccc1OCc1cccc(-c2cccc(-c3nnn[nH]3)c2)c1 [Example 191, 2-(2-((3′-(1H-Tetrazol-5-yl)-[1,1′-biphenyl]-3-yl)methoxy)phenyl)acetic acid] | 20500 nM and 20800 nM

Next, values leading:

IC50 | Compound
47 nM | Cc1ccc(CC(=O)O)c(NC(=O)c2cccc(-c3cc(F)cc(CN)c3)c2)c1 [Example 21-B]
7 nM | CC(C)OCc1cc(COc2ccccc2CC(=O)O)cc(-c2cccc([C@@H](C)N)c2)c1 [Example 120-P]
14 nM | NCc1cc(F)cc(-c2cc(NC3CCOCC3)cc(C(=O)Nc3ccccc3CC(=O)O)c2)c1 [Example 79-D]
62 nM | NCc1cc(F)cc(-c2nc(C(=O)Nc3ccccc3CC(=O)O)cs2)c1 [Example 29, 2-(2-(2-(3-(aminomethyl)-5-fluorophenyl)thiazole-4-carboxamido)phenyl)acetic acid]
63 nM | CC(C#N)Oc1cc(C(=O)Nc2ccccc2CC(=O)O)cc(-c2cccc(CN)c2)c1 (racemic) [Example 64, (±)-2-(2-(3′-(Aminomethyl)-5-(1-cyanoethoxy)-[1,1′-biphenyl]-3-ylcarboxamido)phenyl)acetic acid]
5 nM | NCc1cccc(-c2cc(COc3ccccc3CC(=O)O)cc(OC[C@H]3CCCO3)c2)c1 [Example 135, (R)-2-(2-((3′-(Aminomethyl)-5-((tetrahydrofuran-2-yl)methoxy)-[1,1′-biphenyl]-3-yl)methoxy)phenyl)acetic acid]
2930 nM | CCOC(=O)Cc1ccccc1NC(=O)c1cc(NC(C)=O)cc(-c2cc(F)cc(CN)c2)c1 [Example 67-C, Ethyl 2-(2-(5-acetamido-3′-(aminomethyl)-5′-fluoro-[1,1′-biphenyl]-3-ylcarboxamido)phenyl)acetate]
5 nM | Cn1ccc(CNc2cc(C(=O)Nc3ccccc3CC(=O)O)cc(-c3cc(F)cc(CN)c3)c2)n1 [Example 14-C]
94 nM | NCc1cccc(-c2csc(C(=O)Nc3ccccc3CC(=O)O)n2)c1 [Example 26-B, 2-(2-(4-(3-(Aminomethyl)phenyl)thiazole-2-carboxamido)phenyl)acetic acid]
41 nM | NCc1cccc(-c2cccc(C(=O)Nc3ccccc3CC(=O)O)c2)c1F [Example 37, 2-(2-(3′-(Aminomethyl)-2′-fluoro-[1,1′-biphenyl]-3-ylcarboxamido)phenyl)acetic acid]
16 nM | NCc1cccc(-c2cc(OCC3CCCO3)cc(C(=O)Nc3ccccc3CC(=O)O)c2)c1 (racemic) [Example 63, (±)-2-(2-(3′-(Aminomethyl)-5-((tetrahydrofuran-2-yl)methoxy)-[1,1′-biphenyl]-3-ylcarboxamido)phenyl)acetic acid]
16 nM | NCc1cc(F)cc(-c2cccc(C(=O)Nc3ccccc3CC(=O)O)n2)c1 [Example 20-B, 2-(2-(6-(3-(Aminomethyl)-5-fluorophenyl)picolinamido)phenyl)acetic acid]
6 nM | NCc1cc(F)cc(-c2cc(OC[C@H]3CCCO3)cc(C(=O)Nc3ccccc3CC(=O)O)c2)c1 [Example 76, (R)-2-(2-(3′-(Aminomethyl)-5′-fluoro-5-((tetrahydrofuran-2-yl)methoxy)-[1,1′-biphenyl]-3-ylcarboxamido)phenyl)acetic acid]
958 nM | N[C@H](CCO)c1cccc(-c2cccc(C(=O)Nc3ccccc3CC(=O)O)c2)c1 [Example 88, (R)-2-(2-(3′-(1-Amino-3-hydroxypropyl)-[1,1′-biphenyl]-3-ylcarboxamido)phenyl)acetic acid]
15 nM | C[C@@H](N)c1cccc(-c2cc(COc3ccccc3CC(=O)O)cc(C(O)C(F)(F)F)c2)c1 (single isomer, unassigned) [116-H b) (tr = 4.6 min)]
9 nM | NCc1cc(F)cc(-c2cc(NC3CCOC3)cc(C(=O)Nc3ccccc3CC(=O)O)c2)c1 (stereo not shown) [Example 79-B]
9 nM | COCCc1cc(COc2ccccc2CC(=O)O)cc(-c2cccc([C@@H](C)N)c2F)c1 [Example 120-V]
118 nM | NCc1cc(F)cc(-c2cccc(C(=O)Nc3ccc(Cl)cc3CC(=O)O)n2)c1 [Example 21-P]
47 nM | NCc1cc(F)cc(-c2cc(O)cc(C(=O)Nc3ccccc3CC(=O)O)c2)c1 [Example 60, 2-(2-(3′-(Aminomethyl)-5′-fluoro-5-hydroxy-[1,1′-biphenyl]-3-ylcarboxamido)phenyl)acetic acid]
18 nM | CN(C)c1cc(COc2ccccc2CC(=O)O)cc(-c2cccc([C@H](N)CO)c2)c1 [Example 132, (S)-2-(2-((3′-(1-Amino-2-hydroxyethyl)-5-(dimethylamino)-[1,1′-biphenyl]-3-yl)methoxy)phenyl)acetic acid]
5050 nM | COC(=O)Cc1ccccc1NC(=O)c1ccc(OC)c(-c2cccc(CN)c2)c1 [Example 8-A, Methyl 2-(2-(3′-(aminomethyl)-6-methoxy-[1,1′-biphenyl]-3-ylcarboxamido)phenyl)acetate]
80200 nM | NCc1cccc(-c2cccc(C(=O)Nc3ccccc3CC(N)=O)c2)c1 [Example 3-B, N-(2-(2-Amino-2-oxoethyl)phenyl)-3′-(aminomethyl)-[1,1′-biphenyl]-3-carboxamide]
1990 nM | NCc1ccc(F)c(-c2cccc(COc3ccccc3CC(=O)O)c2)c1 [Example 138-E]

Source: patent US20160145247A1, “Aminomethyl-Biaryl Derivatives Complement Factor D inhibitors and uses thereof” (NOVARTIS AG, priority 2013, published 2016)
